Assay results taken from ChEMBL document CHEMBL3045073, “Synthesis of -amino carbonyl derivatives of coumarin and benzofuran and evaluation of their biological activity” (Med Chem Res, 2013).
In brackets after ≈: the same amount, converted by molar mass. Activity calls are given as the source filed them. No cut-off for these calls is given here.

What was measured:
Pseudomonas aeruginosa [1] = test: Antibacterial activity against Pseudomonas aeruginosa ATCC 27853 assessed as growth inhibition after 24 hr by serial broth dilution method; assay type: functional
[2] = system: Radical scavenging activity; test: Antioxidant activity assessed as DPPH free radical scavenging activity at 100 ug/mL after 10 min UV-Vis spectrophotometric analysis relative to control; assay type: functional
[3] = system: Chrysosporium keratinophilum; test: Antifungal activity against Chrysosporium keratinophilum assessed as growth inhibition at 50 mg/mL after 72 hr by agar well diffusion method; assay type: functional; conditions: for zone of inhibition at 50000 µg/mL: read-out: IZ
Aspergillus flavus [4] = test: Antifungal activity against Aspergillus flavus assessed as growth inhibition at 50 mg/mL after 72 hr by agar well diffusion method; assay type: functional; conditions: for zone of inhibition at 50000 µg/mL: read-out: IZ
Pseudomonas aeruginosa [5] = test: Antibacterial activity against Pseudomonas aeruginosa ATCC 27853 assessed as growth inhibition at 50 mg/mL after 24 hr by agar well diffusion method; assay type: functional; conditions: for zone of inhibition at 50000 µg/mL: ATCC 27853, 24 h, read-out: IZ
Aspergillus flavus [6] = test: Antifungal activity against Aspergillus flavus assessed as growth inhibition after 72 hr by serial broth dilution method; assay type: functional
[7] = system: Chrysosporium keratinophilum; test: Antifungal activity against Chrysosporium keratinophilum assessed as growth inhibition after 72 hr by serial broth dilution method; assay type: functional
Candida albicans [8] = test: Antifungal activity against Candida albicans MTCC227 assessed as growth inhibition after 72 hr by serial broth dilution method
Escherichia coli [9] = test: Antibacterial activity against Escherichia coli ATCC 25922 assessed as growth inhibition after 24 hr by serial broth dilution method
Candida albicans [10] = test: Antifungal activity against Candida albicans MTCC227 assessed as growth inhibition at 50 mg/mL after 72 hr by agar well diffusion method; conditions: for zone of inhibition at 50000 µg/mL: MTCC227, 72 h, read-out: IZ
Staphylococcus aureus [11] = test: Antibacterial activity against Staphylococcus aureus ATCC 25923 assessed as growth inhibition after 24 hr by serial broth dilution method
Escherichia coli [12] = test: Antibacterial activity against Escherichia coli ATCC 25922 assessed as growth inhibition at 50 mg/mL after 24 hr by agar well diffusion method; conditions: for zone of inhibition at 50000 µg/mL: ATCC 25922, 24 h, read-out: IZ
Staphylococcus aureus [13] = test: Antibacterial activity against Staphylococcus aureus ATCC 25923 assessed as growth inhibition at 50 mg/mL after 24 hr by agar well diffusion method; conditions: for zone of inhibition at 50000 µg/mL: ATCC 25923, 24 h, read-out: IZ
[14] = Metal chelating activity of the compound assessed as ferrous ion complex formation at 0.5 to 2 mg/mL after 10 min by spectrophotometric analysis relative to EDTA

Row | MIC (Aspergillus flavus [6]) | MIC [7] | MIC (Pseudomonas aeruginosa [1]; ATCC 27853, 24 h) [µg/mL] | MIC (Candida albicans [8]; MTCC227, 72 h) [µg/mL] | MIC (Escherichia coli [9]; ATCC 25922, 24 h) [µg/mL] | MIC (Staphylococcus aureus [11]; ATCC 25923, 24 h) [µg/mL] | Compound | Activity [2] [%] | growth inhibition (GI) [3] | zone of inhibition at 50000 µg/mL (Aspergillus flavus [4]) [mm] | zone of inhibition at 50000 µg/mL (Pseudomonas aeruginosa [5]) [mm] | zone of inhibition at 50000 µg/mL (Candida albicans [10]) [mm] | zone of inhibition at 50000 µg/mL (Escherichia coli [12]) [mm] | zone of inhibition at 50000 µg/mL (Staphylococcus aureus [13]) [mm] | zone of inhibition at 50000 µg/mL [3] [mm] | further results
1 | inactive | inactive |  |  |  |  | COc1ccc(C(CC(=O)c2cc3ccccc3oc2=O)Nc2ccc(C(=O)O)cc2)cc1 (centres undefined) | 18.1 | inactive |  |  |  |  |  |  | MIC (Pseudomonas aeruginosa [1]): inactive; growth inhibition (GI) (Aspergillus flavus [4]): inactive; growth inhibition (GI) (Pseudomonas aeruginosa [5]): inactive; MIC (Candida albicans [8]): inactive; MIC (Escherichia coli [9]): inactive; growth inhibition (GI) (Candida albicans [10]): inactive; MIC (Staphylococcus aureus [11]): inactive; growth inhibition (GI) (Escherichia coli [12]): inactive; growth inhibition (GI) (Staphylococcus aureus [13]): inactive
2 | 450 µg/mL (≈ 986 µM) | inactive | 400 (≈ 876 µM) | 500 (≈ 1100 µM) | 500 (≈ 1100 µM) | 550 (≈ 1200 µM) | CN(C)c1ccc(C(CC(=O)c2cc3ccccc3oc2=O)Nc2ccc(C(=O)O)cc2)cc1 (centres undefined) | 12.3 | inactive | 1 | 3 | 1 | 3 | 2 |  | 
3 | inactive | inactive |  |  |  |  | Cc1ccc(C(CC(=O)c2cc3ccccc3o2)Nc2ccc(C(=O)O)cc2)cc1 (centres undefined) | 54.1 | inactive |  |  |  |  |  |  | MIC (Pseudomonas aeruginosa [1]): inactive; growth inhibition (GI) (Aspergillus flavus [4]): inactive; growth inhibition (GI) (Pseudomonas aeruginosa [5]): inactive; MIC (Candida albicans [8]): inactive; MIC (Escherichia coli [9]): inactive; growth inhibition (GI) (Candida albicans [10]): inactive; MIC (Staphylococcus aureus [11]): inactive; growth inhibition (GI) (Escherichia coli [12]): inactive; growth inhibition (GI) (Staphylococcus aureus [13]): inactive
4 | 230 µg/mL (≈ 533 µM) | 200 µg/mL (≈ 464 µM) | 100 (≈ 232 µM) | 100 (≈ 232 µM) | 100 (≈ 232 µM) | 120 (≈ 278 µM) | O=C(O)c1ccc(NC(CC(=O)c2cc3ccccc3oc2=O)c2ccc(F)cc2)cc1 (centres undefined) | 35.2 |  | 10 | 12 | 18 | 12 | 10 | 12 | 
5 | 40 µg/mL (≈ 89.3 µM) | 40 µg/mL (≈ 89.3 µM) | 40 (≈ 89.3 µM) | 50 (≈ 112 µM) | 50 (≈ 112 µM) | 50 (≈ 112 µM) | O=C(O)c1ccc(NC(CC(=O)c2cc3ccccc3oc2=O)c2ccc(Cl)cc2)cc1 (centres undefined) | 34.7 |  | 11 | 13 | 19 | 13 | 11 | 15 | 
6 | 450 µg/mL (≈ 1050 µM) | inactive | 500 (≈ 1170 µM) | 500 (≈ 1170 µM) | 500 (≈ 1170 µM) | 500 (≈ 1170 µM) | Cc1ccc(C(CC(=O)c2cc3ccccc3oc2=O)Nc2ccc(C(=O)O)cc2)cc1 (centres undefined) | 52.5 | inactive | 1 | 3 | 1 | 1 | 3 |  | Activity [14]: Active
7 | 130 µg/mL (≈ 322 µM) | 150 µg/mL (≈ 372 µM) | 140 (≈ 347 µM) | 100 (≈ 248 µM) | 300 (≈ 744 µM) | 140 (≈ 347 µM) | O=C(O)c1ccc(NC(CC(=O)c2cc3ccccc3o2)c2ccc(F)cc2)cc1 (centres undefined) | 36.2 |  | 9 | 9 | 18 | 5 | 6 | 12 | Activity [14]: Active
8 | 500 µg/mL (≈ 1200 µM) | 500 µg/mL (≈ 1200 µM) | 500 (≈ 1200 µM) |  | 500 (≈ 1200 µM) | 500 (≈ 1200 µM) | COc1ccc(C(CC(=O)c2cc3ccccc3o2)Nc2ccc(C(=O)O)cc2)cc1 (centres undefined) | 14.2 |  | 1 | 1 |  | 3 | 1 | 2 | MIC (Candida albicans [8]): inactive; growth inhibition (GI) (Candida albicans [10]): inactive
9 |  |  |  |  |  |  | Cc1cc(C(C)(C)C)c(O)c(C(C)(C)C)c1 | 90 |  |  |  |  |  |  |  | 
10 | 450 µg/mL (≈ 1220 µM) | 550 µg/mL (≈ 1490 µM) | 350 (≈ 947 µM) | 300 (≈ 812 µM) | 500 (≈ 1350 µM) | 500 (≈ 1350 µM) | O=C(CC(Nc1ccccc1)c1ccccc1)c1cc2ccccc2oc1=O (centres undefined) | 25.3 |  | 4 | 1 | 7 | 4 | 5 | 3 | 
11 | 500 µg/mL (≈ 1460 µM) | 500 µg/mL (≈ 1460 µM) | 500 (≈ 1460 µM) | 500 (≈ 1460 µM) | 500 (≈ 1460 µM) | 500 (≈ 1460 µM) | O=C(CC(Nc1ccccc1)c1ccccc1)c1cc2ccccc2o1 (centres undefined) | 28.7 |  | 2 | 1 | 2 | 1 | 1 | 1 | 
12 | 40 µg/mL (≈ 95.3 µM) | 40 µg/mL (≈ 95.3 µM) | 140 (≈ 333 µM) | 50 (≈ 119 µM) | 120 (≈ 286 µM) | 130 (≈ 310 µM) | O=C(O)c1ccc(NC(CC(=O)c2cc3ccccc3o2)c2ccc(Cl)cc2)cc1 (centres undefined) | 31.2 |  | 7 | 7 | 17 | 9 | 8 | 13 | 
13 | 40 µg/mL (≈ 93.4 µM) | 40 µg/mL (≈ 93.4 µM) | 40 (≈ 93.4 µM) | 50 (≈ 117 µM) | 50 (≈ 117 µM) | 60 (≈ 140 µM) | CN(C)c1ccc(C(CC(=O)c2cc3ccccc3o2)Nc2ccc(C(=O)O)cc2)cc1 (centres undefined) | 67.2 |  | 10 | 10 | 19 | 13 | 11 | 12 | Activity [14]: Active
14 | 250 µg/mL (≈ 545 µM) | 350 µg/mL (≈ 763 µM) | 430 (≈ 938 µM) | 500 (≈ 1090 µM) | 500 (≈ 1090 µM) | 500 (≈ 1090 µM) | O=C(O)c1ccc(NC(CC(=O)c2cc3ccccc3oc2=O)c2ccc([N+](=O)[O-])cc2)cc1 (centres undefined) | 15.3 |  | 5 | 6 | 4 | 3 | 3 | 6 | 
15 | 550 µg/mL (≈ 1280 µM) | 500 µg/mL (≈ 1160 µM) | 500 (≈ 1160 µM) | 450 (≈ 1050 µM) | 500 (≈ 1160 µM) | 400 (≈ 929 µM) | O=C(O)c1ccc(NC(CC(=O)c2cc3ccccc3o2)c2ccc([N+](=O)[O-])cc2)cc1 (centres undefined) | 29.1 |  | 3 | 3 | 2 | 3 | 3 | 2 | 
16 | inactive | inactive |  |  |  |  | COc1ccc(C(CC(=O)c2cc3ccccc3o2)Nc2ccccc2)cc1 (centres undefined) | 27.3 | inactive |  |  |  |  |  |  | MIC (Pseudomonas aeruginosa [1]): inactive; growth inhibition (GI) (Aspergillus flavus [4]): inactive; growth inhibition (GI) (Pseudomonas aeruginosa [5]): inactive; MIC (Candida albicans [8]): inactive; MIC (Escherichia coli [9]): inactive; growth inhibition (GI) (Candida albicans [10]): inactive; MIC (Staphylococcus aureus [11]): inactive; growth inhibition (GI) (Escherichia coli [12]): inactive; growth inhibition (GI) (Staphylococcus aureus [13]): inactive
